Experimental data published in PubChem BioAssay (NCI).
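How tested: cells in 96-well plates exposed to compound for 48 hours at five concentrations. GI50: concentration for 50% inhibition of growth. TGI denotes the concentration required for complete inhibition of growth.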

How the values were obtained:
Assay in all cases: inhibition of tumour cell growth, NCI panel, 48 h
OVCAR-4 ovarian = system: OVCAR-4 ovarian
HS 578T breast = system: HS 578T breast
SN12C renal = system: SN12C renal
NCI/ADR-RES ovarian = system: NCI/ADR-RES ovarian
U251 CNS = system: U251 CNS
RPMI-8226 leukemia = system: RPMI-8226 leukemia
RXF 393 renal = system: RXF 393 renal
HT29 colon = system: HT29 colon
MCF7 breast = system: MCF7 breast
MDA-MB-435 = system: MDA-MB-435

SMILES	GI50 (OVCAR-4 ovarian) [µM]	TGI (OVCAR-4 ovarian) [µM]	GI50 (HS 578T breast) [µM]	TGI (HS 578T breast) [µM]	GI50 (SN12C renal) [µM]	TGI (SN12C renal) [µM]	GI50 (NCI/ADR-RES ovarian) [µM]	TGI (NCI/ADR-RES ovarian) [µM]	GI50 (U251 CNS) [µM]	TGI (U251 CNS) [µM]	GI50 (RPMI-8226 leukemia) [µM]	TGI (RPMI-8226 leukemia) [µM]	GI50 (RXF 393 renal) [µM]	TGI (RXF 393 renal) [µM]	GI50 (HT29 colon) [µM]	TGI (HT29 colon) [µM]	GI50 (MCF7 breast) [µM]	TGI (MCF7 breast) [µM]	GI50 (MDA-MB-435) [µM]	TGI (MDA-MB-435) [µM]
NC(=Nc1ccc(N)cc1)C(N)=Nc1ccc(N)cc1	> 100	> 100	> 100	> 100	> 100	> 100	> 100	> 100	> 100	> 100	> 100	> 100	> 100	> 100	63.4	> 100	82.8	> 100	> 100	> 100
Cc1cnc(Nc2ccc(N3CCN(C)CC3)cc2)nc1Nc1ccc(Cl)c(NS(=O)(=O)C(C)(C)C)c1	0.18	23.7	0.128	1.4	0.542	12	0.511	6.09	0.84	11.7	0.136	1.31	0.136	0.959	0.0961	4.19	0.0795	2.49	0.17	10.7
CCOC(=O)c1ccc2c(c1)[n+](=O)c(C(C)=O)c(C(F)(F)F)n2[O-]	1.36	3.22	1.4	3.96	2.01	4.55	1.89	5.98	1.48	3.02	1.45	4	2.15	5.77	1.58	3.11	1.24	2.61	1.61	3.21
COc1cccc2c1C(=O)OC2c1cccc2ccccc12 (stereo not given)		> 88.7		> 100		> 100		> 100		> 100		> 100		98.6		> 100		> 100		> 100
Cc1cccc(NC(=O)/C=C/c2ccc([N+](=O)[O-])cc2)c1		> 56.3		> 87		> 58.2		> 59.3		> 52.9		> 68.8		> 52.7		> 70.3		> 43.9		> 52.3
Oc1[nH]c2ccccc2c1N=Nc1c(F)c(F)c(F)c(F)c1F		> 100		> 100		> 55.7		> 100		> 100		25.4		> 100		> 100		> 100		> 100
CCS(=O)(=O)c1ccc(OC)c(Nc2ncc(-c3ccccc3Cl)o2)c1	13	> 25	11.5	> 25	14.9	> 25	8.03	> 25	18.1	> 25	13.4	> 25	7.35	> 21.7	8.01	> 20.5	8.27	> 25	6.73	> 22.1
COc1ccc(C(CC(=O)c2ccccc2)C(C(=O)c2ccccc2)C(c2ccc(OC)cc2)C2C(=O)NC(=S)NC2=O)cc1 (stereo not given)	30.3	> 100	10.5	47.9	12.8	45.2	10.7	34.1	7.42	23.6	25.6	> 100	18.2	> 100	21.3	> 100	16.1	> 100	10.6	35.3
